{"source": "patent US9085536B2", "about": "“Aconitine compounds, compositions, uses, and preparation thereof” (priority 2011, dated 2015)", "key": {"[1]": {"biological_target": "T1, rNaV1.4 expressed in CHO cells (Rattus norvegicus, UniProt P15390)", "T1 construct": "expressed in transfected cells; host or cells: CHO cells", "T1 sequence (P15390 whole entry)": "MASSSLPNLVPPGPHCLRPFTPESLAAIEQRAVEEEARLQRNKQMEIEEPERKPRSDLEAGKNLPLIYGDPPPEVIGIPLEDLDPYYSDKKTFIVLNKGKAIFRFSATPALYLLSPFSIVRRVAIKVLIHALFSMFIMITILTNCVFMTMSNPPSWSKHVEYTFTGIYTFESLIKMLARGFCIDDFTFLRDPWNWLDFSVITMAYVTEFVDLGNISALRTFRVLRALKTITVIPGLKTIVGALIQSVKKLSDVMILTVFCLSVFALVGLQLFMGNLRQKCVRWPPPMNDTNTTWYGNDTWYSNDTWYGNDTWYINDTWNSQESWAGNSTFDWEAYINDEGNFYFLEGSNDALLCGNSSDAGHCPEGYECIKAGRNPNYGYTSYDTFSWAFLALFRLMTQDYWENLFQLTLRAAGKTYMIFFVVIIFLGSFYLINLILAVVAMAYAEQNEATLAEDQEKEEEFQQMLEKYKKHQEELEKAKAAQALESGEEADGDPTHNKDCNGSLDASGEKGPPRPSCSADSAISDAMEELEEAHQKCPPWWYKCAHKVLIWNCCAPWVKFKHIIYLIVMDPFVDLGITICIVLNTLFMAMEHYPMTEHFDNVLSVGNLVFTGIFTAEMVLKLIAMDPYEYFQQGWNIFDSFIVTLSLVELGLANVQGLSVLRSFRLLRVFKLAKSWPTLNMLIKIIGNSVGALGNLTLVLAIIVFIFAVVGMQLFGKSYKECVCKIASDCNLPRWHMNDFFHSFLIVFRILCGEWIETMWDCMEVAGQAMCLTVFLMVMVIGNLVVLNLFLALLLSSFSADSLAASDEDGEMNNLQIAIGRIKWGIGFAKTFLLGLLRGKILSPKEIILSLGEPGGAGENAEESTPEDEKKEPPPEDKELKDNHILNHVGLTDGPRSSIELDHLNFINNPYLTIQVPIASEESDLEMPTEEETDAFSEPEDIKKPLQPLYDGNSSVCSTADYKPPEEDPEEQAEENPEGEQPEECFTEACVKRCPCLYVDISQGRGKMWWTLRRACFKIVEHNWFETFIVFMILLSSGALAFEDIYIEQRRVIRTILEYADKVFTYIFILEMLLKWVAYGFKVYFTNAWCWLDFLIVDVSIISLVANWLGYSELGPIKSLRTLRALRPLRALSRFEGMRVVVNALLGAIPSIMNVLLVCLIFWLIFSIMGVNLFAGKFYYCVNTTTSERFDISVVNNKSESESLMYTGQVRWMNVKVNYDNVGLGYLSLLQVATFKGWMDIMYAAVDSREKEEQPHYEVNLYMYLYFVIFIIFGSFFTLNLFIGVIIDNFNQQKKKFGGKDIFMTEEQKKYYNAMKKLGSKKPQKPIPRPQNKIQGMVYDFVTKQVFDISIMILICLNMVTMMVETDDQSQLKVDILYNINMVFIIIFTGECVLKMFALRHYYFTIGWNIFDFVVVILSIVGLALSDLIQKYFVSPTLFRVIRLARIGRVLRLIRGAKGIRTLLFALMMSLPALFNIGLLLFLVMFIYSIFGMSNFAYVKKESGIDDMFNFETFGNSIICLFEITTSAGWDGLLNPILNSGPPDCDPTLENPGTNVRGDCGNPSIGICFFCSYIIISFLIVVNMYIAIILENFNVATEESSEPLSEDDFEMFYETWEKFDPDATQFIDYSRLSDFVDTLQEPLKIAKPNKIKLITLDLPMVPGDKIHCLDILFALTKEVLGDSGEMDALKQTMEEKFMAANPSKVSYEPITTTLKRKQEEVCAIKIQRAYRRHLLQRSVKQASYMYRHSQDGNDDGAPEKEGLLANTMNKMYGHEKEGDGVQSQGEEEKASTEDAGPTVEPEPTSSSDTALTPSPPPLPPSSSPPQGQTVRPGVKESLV", "assay": "Na+ current block at steady state, whole-cell patch clamp with pulse trains", "format": "cell-based", "settings": "for depolarizing pulses required to reach steady-state block: 10 Hz pulse trains", "method": "Binding of aconitine to NaV is use-dependent and is known to result both in a left shift of the current-voltage (I-V) relationship and in partial block of the channel. […] To determine whether aconitine binding is reversible, two experiments were designed. First, as block by aconitine is known to be use dependent, peak current was measured as a function of pulse number in the presence of two different concentrations of aconitine. Since aconitine binds preferentially to the open state of the sodium channel, a pulse train was applied sequentially with a control pulse used to record peak current. The pulse train consisted of a series of 50 depolarizing pulses (from −100 mV holding potential to 0 mV, 10 ms duration) applied at 10 Hz frequency, while the control pulse consisted of a single depolarizing pulse (from −100 mV holding potential to 0 mV test potential, 10 ms duration).\nPulse trains of 10 Hz frequency and control pulses were applied sequentially to cells expressing rNaV1.4, and currents elicited from the control pulse were recorded after each pulse train. This process was repeated until the current elicited from the control pulse had reached a steady state and was no longer decreasing with each additional pulse train. If block were irreversible, this steady state current would be expected to be independent of toxin concentration—the toxin would not be able to dissociate from its receptor, and the number of toxin molecules is much greater than the number of sodium channels (assuming a 100 μL chamber containing 1000 CHO cells, each expressing 10,000 sodium channels, at 50 μM concentration toxin molecules outnumber receptors by a factor of 3×10^8:1), therefore, all receptors would eventually reach the bound state.\nBlock by aconitine is known to be use-dependent, therefore the use-dependence of the C14 derivatives of aconitine was evaluated. Peak Na current was measured as a function of pulse number in the presence of different concentrations of the molecules. […] Since aconitine binds preferentially to the open state of the sodium channel, a pulse train was applied sequentially with a control pulse used to record peak current. The pulse train consisted of a series of 50 depolarizing pulses (from −100 mV holding potential to 0 mV, 10 ms duration) applied at 10 Hz frequency, while the control pulse consisted of a single depolarizing pulse (from −100 mV holding potential to 0 mV test potential, 10 ms duration).\nPulse trains of 10 Hz frequency and control pulses were applied sequentially to CHO cells expressing rNaV1.4, and currents elicited from the control pulse were recorded after each pulse train. This process was repeated until the current elicited from the control pulse had reached a steady state and was no longer decreasing with each additional pulse train. If block were irreversible, this steady state current would be expected to be independent of toxin concentration—the toxin would not be able to dissociate from its receptor, and the number of toxin molecules is much greater than the number of sodium channels, therefore, all receptors would eventually reach the bound state.\nThe ability of the synthesized aconitine derivatives to block NaV channels was evaluated with patch-clamp experiments in the whole-cell configuration on CHO cells expressing rNaV1.4 heterologously. A buffer solution containing the toxin was applied to the cells, whole-cell Na^+ currents were recorded until the decreasing current reached a steady-state (300 to 3000 pulses, depending on the molecules and concentrations). The peak Na^+ currents were measured with a depolarizing test pulse (from −100 mV holding potential to 0 mV test potential, 10 ms duration)."}, "[2]": {"biological_target": "T1, rNaV1.4 expressed in CHO cells", "format": "cell-based", "method": "[…] […] It is noteworthy that little or no increase in current was observed during wash off when no depolarizing pulses were applied and peak current was measured as a function of time.\nSince the molecules bind to the open-state of the Nav channel their release also requires activation pulses. In typical experiments, buffered external solution was perfused and a pulse train sequence was applied to the patch-clamp until the current reached a steady-state for at least two minutes."}, "[3]": {"biological_target": "T1, rNaV1.4 expressed in CHO cells", "assay": "Activation: current-voltage (I-V) and conductance-voltage (G-V) relationship, whole-cell recording", "format": "cell-based", "settings": "50 μM", "method": "To determine if the shift in I-V relationship is affected by the aromaticity of the aconitine C14 benzoate, current-voltage relationships were recorded for control cells expressing NaV, those that had been modified by aconitine, and those that had been modified by aconitine C14-cyclohexanoate 4.8d. For the modified channels, solutions of 50 μM concentration of the respective toxins were perfused onto the cells, and then depolarizing pulses were applied until a steady state current was observed, generally requiring about 1000 pulses. At that time, current-voltage relationships were again recorded. […] A shift towards hyperpolarizing potentials is clearly observed in both cases. Currents recorded at −50 mV are highlighted for all three experiments.\nTo determine the effect on current-voltage (I-V) relationship of the aconitine derivatives, whole cell currents were recorded in cells expressing NaV in the presence of aconitine derivatives. Control I-V plots were recorded with unmodified NaV1.4, to which were compared NaV channels modified by aconitine as well as by selected analogs. For the modified channels, solutions of the respective toxins were perfused onto the cells, and then depolarizing pulses were applied until a steady state current was observed, generally requiring about 1000 pulses. A sequence of test pulses was then recorded to determine the current-voltage relationships (using a step protocol in which CHO cells were depolarized for 10 ms from a holding potential of −100 mV to a range of potentials from −95 mV to +30 mV in 5 or 10 mV increments; peak currents were normalized to the maximum peak current and plotted against voltage)."}, "[4]": {"biological_target": "T1, rNaV1.4 expressed in CHO cells", "assay": "Steady-state inactivation, whole-cell recording, Boltzmann fit", "format": "cell-based", "method": ". The channels were modified by perfusing the cells with buffered solution containing aconitine at the given concentrations and then simple pulses (10 ms pulses to 0 mV from −100 mV holding potential) were recorded until the currents leveled to a steady value (typically ˜1000 pulses). Steady-state fast inactivation of the current was then determined by delivering 500 ms conditioning pulses to potentials ranging from −130 to −11 mV (7 my increments) immediately followed by a 10 ms test pulse to 0 mV to test the available current. The peak current measured during the test pulse was normalized to the maximum peak current recorded in the conditioning pulses. […] Midpoint voltage V0.5 represents the membrane potential at which half maximum current is observed; slope factor at midpoint k quantifies the rate at which the inactivation response occurs."}, "[5]": {"settings": "total dose; cited from earlier work"}}, "note": "Read-outs that look alike come from different tables or passages of the source."}
{"smiles": "CCN1CC2(COC)C3C(OC)C4C1C3(C1C[C@@]3(O)[C@H](OC(=O)c5ccccc5)[C@@H]1[C@]4(OC(C)=O)[C@@H](O)[C@@H]3OC)[C@@H](OC)C[C@H]2O", "note": "(some centres unmarked) [Aconitine, aconitine]", "values": [{"measurement": "peak current blocked at steady state", "setting": "[1]", "result": 40, "unit": "%"}, {"measurement": "% Remaining current after reaching steady-state binding", "setting": "[1]; 5 μM", "result": 40, "unit": "%"}, {"measurement": "% Remaining current after reaching steady-state binding", "setting": "[1]; 20 μM", "result": 19, "unit": "%"}, {"measurement": "peak current blocked at steady state", "setting": "[1]; 20 μM", "result": 81, "unit": "%"}, {"measurement": "Current measured at 20 μM (%)", "setting": "[1]; 20 μM, before wash-off", "result": 19, "unit": "%"}, {"measurement": "depolarizing pulses required to reach steady-state block", "setting": "[1]; 20 μM", "result": "around 600 pulses"}, {"measurement": "% Remaining current after reaching steady-state binding", "setting": "[1]; 50 μM", "result": 13, "unit": "%"}, {"measurement": "peak current blocked at steady state", "setting": "[1]; 50 μM", "result": 83, "unit": "%"}, {"measurement": "depolarizing pulses required to reach steady-state block", "setting": "[1]; 50 μM", "result": "approximately 800 pulses"}, {"measurement": "% Remaining current after reaching steady-state binding", "setting": "[1]; 50 μM, listed as aconitine", "result": 15, "unit": "%"}, {"measurement": "% Remaining current after reaching steady-state binding", "setting": "[1]; 75 μM", "result": 13, "unit": "%"}, {"measurement": "peak current blocked at steady state", "setting": "[1]; 75 μM", "result": 87, "unit": "%"}, {"measurement": "Current measured at 75 μM (%)", "setting": "[1]; 75 μM, before wash-off", "result": 13, "unit": "%"}, {"measurement": "depolarizing pulses required to reach steady-state block", "setting": "[1]; 75 μM", "result": 800, "unit": "pulses"}, {"measurement": "% Remaining current after reaching steady-state binding", "setting": "[1]; 200 μM", "result": 5, "unit": "%"}, {"measurement": "peak current blocked at steady state", "setting": "[1]; 200 μM", "result": "approximately 94%"}, {"measurement": "depolarizing pulses required to reach steady-state block", "setting": "[1]; 200 μM", "result": 300, "unit": "pulses"}, {"measurement": "depolarizing pulses required to reach steady-state block", "setting": "[1]; 5 (unit not printed)", "result": "over 2500 pulses"}, {"measurement": "current restoration during wash off", "setting": "[2]; after 200 μM and 1000 depolarizing pulses, toxin-free buffer with pulses", "result": "significant current restoration"}, {"measurement": "Current after wash-off (%)", "setting": "[2]; after wash-off of 20 μM", "result": 94, "unit": "%"}, {"measurement": "Current after wash-off (%)", "setting": "[2]; after wash-off of 75 μM", "result": 62, "unit": "%"}, {"measurement": "Activation V0.5 (mV)", "setting": "[3]", "result": "−40.3", "unit": "mV"}, {"measurement": "Activation hg", "setting": "[3]", "result": 10.4}, {"measurement": "membrane potential at which maximum inward Na current occurs", "setting": "[3]", "result": "around −10 mV"}, {"measurement": "current at −50 mV", "setting": "[3]; after about 1000 pulses, no current in control cells", "result": "substantial currents"}, {"measurement": "Steady-state inactivation V0.5 (mV)", "setting": "[4]; 5 μM", "result": "−65.1", "unit": "mV"}, {"measurement": "Steady-state inactivation k (slope factor at midpoint)", "setting": "[4]; 5 μM", "result": 6.50}, {"measurement": "Steady-state inactivation V0.5 (mV)", "setting": "[4]; 50 μM", "result": "−65", "unit": "mV"}, {"measurement": "Steady-state inactivation k (slope factor at midpoint)", "setting": "[4]; 50 μM", "result": 5.97}, {"measurement": "Steady-state inactivation V0.5 (mV)", "setting": "[4]; 200 μM", "result": "−82.4", "unit": "mV"}, {"measurement": "Steady-state inactivation k (slope factor at midpoint)", "setting": "[4]; 200 μM", "result": 21.0}, {"measurement": "lethal doses in humans, estimated", "setting": "[5]", "result": "1 to 5", "unit": "mg"}]}
